Entries after “also recorded” stand apart in the source; their conditions may differ.
What was measured:
hippocampal slices = conditions: male, Sprague-Dawley, rat
Swiss Webster mice = assay: PTZ proconvulsant test; format: in vivo, Mouse; conditions: 30 mg/kg or less p.o., 30 minutes before PTZ infusion
Description: Follow on studies of CX717 and 1739 are continuing, employing additional well-known models for SCI drug efficacy, coupled with a variety of ongoing safety studies. Preliminary safety studies already completed have included a range of toxicity studies focusing on critical convulsant risks widely observed for previously-studied ampakines. Using the well-known PTZ Proconvulsant test, non-GLP safety studies were conducted to examine proconvulsant activity of CX717. Swiss Webster mice (n=12/group) were dosed with CX717 (3, 10 or 30 mg/kg p.o.), vehicle (0.5% methocel p.o.) or a positive control, CGS8216 (10 mg/kg in 70% PEG300: 30% water i.p.). Thirty minutes later, the GABA-A antagonist, pentylenetetrazol (PTZ) was infused in the tail vein until tonic seizures were observed. The time at which the first clonic and tonic seizure was observed was noted and used to determine the dose of PTZ necessary to induce both clonic and tonic seizure.

[1] = system: adult patients with Attention-Deficit Hyperactive Disorder (ADHD); assay: Phase 2 randomized, double-blind, 2-period crossover study in adult ADHD; format: in vivo, human; conditions: for ADHD-RS hyperactivity subscale mean score: ITT
Description: *This phase 2 study evaluated the efficacy, tolerability and safety of CX717 in the treatment of adult patients with Attention-Deficit Hyperactive Disorder (ADHD). The study was designed and executed as a randomized, double-blind, multi-center, 2-period crossover study comparing 2 doses of CX717 (200 mg, or 800 mg, BID) with placebo. Each treatment period lasted 3 weeks with a 2-week washout in between. Subjects met DSM-IV criteria for adult ADHD and had moderate to severe symptoms. The primary efficacy measure was the change from baseline on the ADHD Rating Scale (ADHD-RS) with adult ADHD prompts. A total of 68 male subjects, who were 19 to 50 years old and met criteria of Adult ADHD as defined by DSM IV, were randomized After accounting for early study dropouts, 51 subjects (75%) returned for efficacy assessments and completed both treatment periods (intent-to-treat population). […] Treatment with CX717 was well tolerated with no clinically significant changes in cardiovascular and other safety parameters with either dose. Sleep disturbances and headache were the most frequently reported adverse events.
The present study further examined the clinical efficacy, tolerability and safety of CX717 as a drug treatment for adults with ADHD. Eligible subjects were randomized to 1 of 4 possible treatment sequences in which they received placebo (P) and either high dose (H) or low dose (L) of active treatment in random order (PL, PH, LP, and HP). Each treatment period was 3 weeks in duration with a 2-week washout in between. The study design was modeled after several similarly published ADHD studies with atomoxetine and stimulants, with sample sizes in the mid-20s. Since this is the first such study with CX7171 in ADHD, it is assumed that efficacy would be achieved using historical assumptions in effect size, therefore, a total of 60 subjects were to be randomized.
All patients met DSM-IV criteria for adult ADHD, established by the Adult ADHD Clinical Diagnostic Scale (ACDS) Version 1.2. All patients gave written informed consent prior to enrollment and the conduct of the study was approved by either the […] Review Board (IRB) at each site or by the central IRB. Each subject had at least moderately severe ADHD symptoms (ADHD-RS score of ≥22; Clinician's Global Impression of Severity [CGI-S] score of ≥4). Each subject was male, and between 18-50 years old, inclusively. Male patients were selected because the necessary reproductive toxicology studies that would have allowed women of childbearing potential to be included in the study had not been completed.
Subjects were excluded if they were taking medication specifically for treatment of ADHD symptoms (e.g., stimulants, atomoxetine, tricyclic antidepressants, or bupropion). ADHD treatments were discontinued (stimulants for 2 weeks and non-stimulant for 4 weeks) prior to the Period 1 baseline visit. Subjects were also excluded if they were taking antidepressants, anticonvulsants, or antipsychotics.
CX717 capsules were administered orally as 200 mg BID or 800 mg BID doses. Matching placebo capsules were identical in appearance to the capsules containing active drug, and were administered orally. The study was divided into a series of periods: screening period—up to 4 weeks, treatment period 1-3 weeks; wash-out period—2 weeks; treatment period 2-3 weeks; follow-up period—approximately 1 week.
ADHD recovery drug efficacy was assessed using the Adult ADHD Rating Scale (DuPaul, 1998) with prompts ([…]) (Adler & Cohen, 2004). The primary efficacy outcome measure was the comparison of each dose of CX717 versus placebo on the change from baseline in ADHD symptoms as measured by the ADHD-RS at Week 3. Secondary efficacy parameters included comparisons of each dose of CX717 versus placebo for the ADHD-RS Inattentiveness Subscale Score of the ADHD-RS.
Safety was evaluated by adverse events (AEs), clinical laboratory tests, vital signs, physical examination, and electrocardiograms (ECGs). […]

adult rats = assay: Phrenic burst amplitude after C2 spinal cord hemisection (C2Hx); format: in vivo, Rat; conditions: two weeks after C2Hx, 15 mg/k, i.v.
From the text: In a preliminary examination of the therapeutic potential of ampakines for treating SCI, Wollman and coworkers (2020^16) reported that ampakines may stimulate phrenic activity after incomplete cervical spinal cord injury (SCI) in anesthetized rats. […] To competently address the role of ampakines in alleviating neural and motor function deficits in SCI subjects, Applicants present herein a range of findings, illustrating a diverse array of potent ampakine activities effective for SCI treatment. Among these findings, two low impact ampakines, CX717 and CX1739, potently stimulate diaphragm muscle activation and breathing in freely moving, non-anesthetized rats following SCI. ^16 Wollman L B, Streeter K A, Fusco Gonzalez-Rothi E J, Sandhu M S, Greer J J, Fuller D D. Exp Neural. 2020 December; 334:113 doi: 10.1016/j.expneurol.2020.113465. Epub 2020 September PMID: 32949571.
Exemplifying the efficacy of combining Ampakine SCI treatment with secondary therapeutic intervention, Applicants determined in a predictive animal model that pairing ampakine treatment with a single bout of acute hypoxia (5-min, arterial partial pressure of O2˜50 mmHg) beneficially impacts phrenic bursting, with some rats showing a large facilitation that exceeds the response compared to ampakine-only treated subjects. […]

[2] = system: non-selective alpha1 adrenergic receptor; assay: Alpha1 adrenergic receptor radioligand binding; conditions: 100 μM
[3] = high dose (800 mg BID), after 3 weeks

SMILES	Concentration at which seizure activity is seen in hippocampal slices (hippocampal slices) [µM]	Dose of PTZ required to elicit a seizure (proconvulsant activity) (Swiss Webster mice)	ADHD-RS outcome measures, low dose versus placebo ([1]; 200 mg BID)	ADHD-RS total and subscales, high dose versus placebo, repeated measures analysis ([1]; 800 mg BID, at endpoint)	ADHD-RS hyperactivity subscale mean score ([1]; active dose (both doses), last value)	Difference from placebo in mean change of ADHD-RS total score [1, 3]	Mean change from baseline of ADHD-RS total score [1, 3]	ADHD-RS hyperactivity subscale mean score ([1]; high dose, Week 1)	ADHD-RS hyperactivity subscale mean score ([1]; high dose, Week 3)	ADHD-RS hyperactivity subscale mean score ([1]; high dose, last value)	Increase of contralateral (CL) phrenic burst amplitude (adult rats) [% BL]	Increase of ipsilateral (IL) phrenic burst amplitude (adult rats)	Inhibition of reference ligand binding, non-selective alpha1 adrenergic receptor [2] [%]
O=C(c1ccc2nonc2c1)N1CCOCC1 [CX717, 1-(benzofurazan-5-ylcarbonyl)morpholine]	> 600	did not decrease the dose of PTZ required to elicit a seizure	no statistically significant differences; also recorded: did not differ from placebo	superior efficacy compared to placebo	−4.10	−4.73	−9.95	−4.22	−5.68	−5.57	47±26	61±46 % baseline, BL	
CN(C(=O)c1ccc2nonc2c1)C1CCOCC1 [CX1739, N-Methyl-N-tetrahydro-2H-pyran-4-yl-[2,1,3]-benzoxadiazole-5-carboxamide]													67

From US20240100023A1, “Compositions and Methods For Treating Spinal Cord Injuries” (priority 2020, published 2024)
